According to ChEMBL document CHEMBL2163284, “Targeting the S1 and S3 subsite of trypsin with unnatural cationic amino acids generates antimicrobial peptides with potential for oral administration” (J Med Chem, 2012):
Converted amounts (≈) assume the structure as drawn. Non-standard residues stand in square brackets, D forms with d. Residues, ends and D or L forms follow the SMILES beside them. *: point of attachment. Phe(4-guanidino) = N=C(N)Nc1ccc(C[C@H](N)C(=O)O)cc1; Bip = N[C@@H](Cc1ccc(-c2ccccc2)cc1)C(=O)O; Phe(4-NH2) = Nc1ccc(C[C@H](N)C(=O)O)cc1; hArg = N=C(N)NCCCC[C@H](N)C(=O)O; Agp = N=C(N)NC[C@H](N)C(=O)O; Orn = NCCC[C@H](N)C(=O)O; NHBn = c1ccc(CN*)cc1

Legend:
Staphylococcus aureus [1] = test: Antimicrobial activity against Staphylococcus aureus ATCC 25923 by serial dilution method; format: functional
Staphylococcus aureus [2] = test: Antimicrobial activity against methicillin-resistant Staphylococcus aureus ATCC 33591 by serial dilution method; format: functional
[3] = Chemical stability assessed as half life at 1 mg/ml in presence of trypsin incubated for 24 hrs by RP-HPLC; format: physicochemical; conditions: for half-life at 1 mg/ml: trypsin; for t1/2: isolated protein, 24 h
[4] = Binding affinity to trypsin at 25 degC by isothermal calorimetry
[5] = Half life in CD1 mouse stomach whole organ extracts assessed as half life at 1 mg/ml at 37 degC at pH 7.4 by HPLC; format: ADME, tissue-based
[6] = Half life in CD1 mouse duodenum whole organ extracts assessed as half life at 1 mg/ml at 37 degC by HPLC; format: ADME, tissue-based
[7] = Half life in CD1 mouse liver whole organ extracts assessed as half life at 1 mg/ml at 37 degC by HPLC; format: ADME, tissue-based

## N=C(N)Nc1ccc(C[C@H](NC(=O)[C@H](Cc2ccc(-c3ccccc3)cc2)NC(=O)[C@@H](N)CCCCN)C(=O)NCc2ccccc2)cc1 (H-Lys-[Bip]-[Phe(4-guanidino)]-NHBn)
Staphylococcus aureus [1]
  MIC: 5 µg/mL (≈ 7.54 µM)
Staphylococcus aureus [2]
  MIC: 5 µg/mL (≈ 7.54 µM)
[3]
  half-life at 1 mg/ml: 5 h

## N=C(N)NCCC[C@H](N)C(=O)N[C@@H](Cc1ccc(-c2ccccc2)cc1)C(=O)N[C@@H](Cc1ccc(NC(=N)N)cc1)C(=O)NCc1ccccc1
Staphylococcus aureus [1]
  MIC: 5 µg/mL (≈ 7.24 µM)
Staphylococcus aureus [2]
  MIC: 5 µg/mL (≈ 7.24 µM)
[4]
  Kd: 5.3 µM
[3]
  half-life at 1 mg/ml: 4.1 h

## N=C(N)NCCC[C@H](NC(=O)[C@H](Cc1ccc(-c2ccccc2)cc1)NC(=O)[C@@H](N)CCCN)C(=O)NCc1ccccc1 (H-[Orn]-[Bip]-Arg-NHBn)
Staphylococcus aureus [1]
  MIC: 15 µg/mL (≈ 25 µM)
Staphylococcus aureus [2]
  MIC: 25 µg/mL (≈ 41.6 µM)
[4]
  Kd: 37.2 µM
[3]
  half-life at 1 mg/ml: 5.1 h

## N=C(N)Nc1ccc(C[C@H](N)C(=O)N[C@@H](Cc2ccc(-c3ccccc3)cc2)C(=O)N[C@@H](CCCCN)C(=O)NCc2ccccc2)cc1 (H-[Phe(4-guanidino)]-[Bip]-Lys-NHBn)
Staphylococcus aureus [1]
  MIC: 5 µg/mL (≈ 7.54 µM)
Staphylococcus aureus [2]
  MIC: 10 µg/mL (≈ 15.1 µM)
[3]
  half-life at 1 mg/ml: 2.2 h

## N=C(N)NCCC[C@H](N)C(=O)N[C@@H](Cc1ccc(-c2ccccc2)cc1)C(=O)N[C@@H](CCCCN)C(=O)NCc1ccccc1 (H-Arg-[Bip]-Lys-NHBn)
Staphylococcus aureus [1]
  MIC: 10 µg/mL (≈ 16.3 µM)
Staphylococcus aureus [2]
  MIC: 10 µg/mL (≈ 16.3 µM)
[4]
  Kd: 20 µM
[3]
  half-life at 1 mg/ml: 2.8 h

## N=C(N)NCCC[C@H](NC(=O)[C@H](Cc1ccc(-c2ccccc2)cc1)NC(=O)[C@@H](N)Cc1ccc(NC(=N)N)cc1)C(=O)NCc1ccccc1 (H-[Phe(4-guanidino)]-[Bip]-Arg-NHBn)
Staphylococcus aureus [1]
  MIC: 5 µg/mL (≈ 7.24 µM)
Staphylococcus aureus [2]
  MIC: 5 µg/mL (≈ 7.24 µM)
[3]
  half-life at 1 mg/ml: 0.5 h

## N=C(N)NCCC[C@H](NC(=O)[C@@H](N)CCCNC(=N)N)C(=O)N[C@@H](Cc1c[nH]c2ccccc12)C(=O)NCc1ccccc1 (H-Arg-Arg-Trp-NHBn)
Staphylococcus aureus [1]
  MIC: 25 µg/mL (≈ 41.3 µM)
Staphylococcus aureus [2]
  MIC: 75 µg/mL (≈ 124 µM)
[3]
  half-life at 1 mg/ml: < 0.5 h

## N=C(N)NCCC[C@H](NC(=O)[C@H](Cc1ccc(-c2ccccc2)cc1)NC(=O)[C@@H](N)CNC(=N)N)C(=O)NCc1ccccc1 (H-[Agp]-[Bip]-Arg-NHBn)
Staphylococcus aureus [1]
  MIC: 10 µg/mL (≈ 16.3 µM)
Staphylococcus aureus [2]
  MIC: 10 µg/mL (≈ 16.3 µM)
[3]
  half-life at 1 mg/ml: 1.4 h

## N=C(N)NCCC[C@H](NC(=O)[C@@H](N)CCCNC(=N)N)C(=O)N[C@@H](Cc1ccc(-c2ccccc2)cc1)C(=O)NCc1ccccc1 (H-Arg-Arg-[Bip]-NHBn)
Staphylococcus aureus [1]
  MIC: 5 µg/mL (≈ 7.78 µM)
Staphylococcus aureus [2]
  MIC: 5 µg/mL (≈ 7.78 µM)
[3]
  half-life at 1 mg/ml: < 0.5 h

## N=C(N)NCCC[C@H](NC(=O)[C@H](Cc1ccc(-c2ccccc2)cc1)NC(=O)[C@@H](N)CCCCN)C(=O)NCc1ccccc1 (H-Lys-[Bip]-Arg-NHBn)
Staphylococcus aureus [1]
  MIC: 10 µg/mL (≈ 16.3 µM)
Staphylococcus aureus [2]
  MIC: 10 µg/mL (≈ 16.3 µM)
[4]
  Kd: 11.6 µM
[3]
  half-life at 1 mg/ml: 1.8 h

## N=C(N)NCCC[C@H](N)C(=O)N[C@@H](Cc1ccc(-c2ccccc2)cc1)C(=O)N[C@@H](CNC(=N)N)C(=O)NCc1ccccc1 (H-Arg-[Bip]-[Agp]-NHBn)
[5]
  half-life at 1 mg/ml: 11.7 h
Staphylococcus aureus [1]
  MIC: 5 µg/mL (≈ 8.13 µM)
[6]
  half-life at 1 mg/ml: 5.39 h
[7]
  half-life at 1 mg/ml: 3.19 h
Staphylococcus aureus [2]
  MIC: 5 µg/mL (≈ 8.13 µM)
[3]
  t1/2: Stable

## N=C(N)NCCC[C@H](N)C(=O)N[C@@H](Cc1ccc(N)cc1)C(=O)N[C@@H](Cc1c[nH]c2ccccc12)C(=O)NCc1ccccc1 (H-Arg-[Phe(4-NH2)]-Trp-NHBn)
Staphylococcus aureus [1]
  MIC: 75 µg/mL (≈ 123 µM)
Staphylococcus aureus [2]
  MIC: > 150 µg/mL
[4]
  Kd: 14.9 µM
[3]
  t1/2: Stable

## N=C(N)Nc1ccc(C[C@H](NC(=O)[C@H](Cc2ccc(-c3ccccc3)cc2)NC(=O)[C@@H](N)Cc2ccc(NC(=N)N)cc2)C(=O)NCc2ccccc2)cc1 (H-[Phe(4-guanidino)]-[Bip]-[Phe(4-guanidino)]-NHBn)
Staphylococcus aureus [1]
  MIC: < 2.5 µg/mL
Staphylococcus aureus [2]
  MIC: 5 µg/mL (≈ 6.77 µM)
[3]
  half-life at 1 mg/ml: 2.2 h

## N=C(N)NCCC[C@H](NC(=O)[C@H](Cc1ccc(-c2ccccc2)cc1)NC(=O)[C@@H](N)CCCNC(=N)N)C(=O)NCc1ccccc1 (H-Arg-[Bip]-Arg-NHBn)
[5]
  half-life at 1 mg/ml: 0.167 h
Staphylococcus aureus [1]
  MIC: 10 µg/mL (≈ 15.6 µM)
[6]
  half-life at 1 mg/ml: 0.102 h
[7]
  half-life at 1 mg/ml: 1.76 h
Staphylococcus aureus [2]
  MIC: 10 µg/mL (≈ 15.6 µM)
[4]
  Kd: 11.3 µM
[3]
  half-life at 1 mg/ml: 1 h

## NCCCC[C@H](NC(=O)[C@H](Cc1ccc(-c2ccccc2)cc1)NC(=O)[C@@H](N)CCCCN)C(=O)NCc1ccccc1 (H-Lys-[Bip]-Lys-NHBn)
Staphylococcus aureus [1]
  MIC: 25 µg/mL (≈ 42.6 µM)
Staphylococcus aureus [2]
  MIC: 15 µg/mL (≈ 25.6 µM)
[4]
  Kd: 21 µM
[3]
  half-life at 1 mg/ml: 4.5 h

## N=C(N)NCCCC[C@H](N)C(=O)N[C@@H](Cc1ccc(-c2ccccc2)cc1)C(=O)N[C@@H](CCCNC(=N)N)C(=O)NCc1ccccc1 (H-[hArg]-[Bip]-Arg-NHBn)
Staphylococcus aureus [1]
  MIC: < 2.5 µg/mL
Staphylococcus aureus [2]
  MIC: 10 µg/mL (≈ 15.2 µM)
[3]
  half-life at 1 mg/ml: 1.9 h

## N=C(N)NCCC[C@H](N)C(=O)N[C@@H](Cc1ccc(N)cc1)C(=O)N[C@@H](Cc1ccc(-c2ccccc2)cc1)C(=O)NCc1ccccc1 (H-Arg-[Phe(4-NH2)]-[Bip]-NHBn)
Staphylococcus aureus [1]
  MIC: 15 µg/mL (≈ 23.1 µM)
Staphylococcus aureus [2]
  MIC: 10 µg/mL (≈ 15.4 µM)
[4]
  Kd: 2.6 µM
[3]
  t1/2: Stable

## N=C(N)NCCCC[C@H](NC(=O)[C@H](Cc1ccc(-c2ccccc2)cc1)NC(=O)[C@@H](N)CCCNC(=N)N)C(=O)NCc1ccccc1 (H-Arg-[Bip]-[hArg]-NHBn)
[5]
  half-life at 1 mg/ml: 6.69 h
Staphylococcus aureus [1]
  MIC: 5 µg/mL (≈ 7.61 µM)
[6]
  half-life at 1 mg/ml: 1.37 h
[7]
  half-life at 1 mg/ml: 1.07 h
Staphylococcus aureus [2]
  MIC: 10 µg/mL (≈ 15.2 µM)
[4]
  Kd: 48.4 µM
[3]
  t1/2: Stable

## N=C(N)NCCC[C@H](N)C(=O)N[C@@H](Cc1ccc(-c2ccccc2)cc1)C(=O)N[C@@H](CCCN)C(=O)NCc1ccccc1 (H-Arg-[Bip]-[Orn]-NHBn)
Staphylococcus aureus [1]
  MIC: 5 µg/mL (≈ 8.32 µM)
Staphylococcus aureus [2]
  MIC: 10 µg/mL (≈ 16.6 µM)
[4]
  Kd: 57.2 µM
[3]
  t1/2: Stable

## N=C(N)NCCC[C@H](N)C(=O)N[C@@H](Cc1ccc(NC(=N)N)cc1)C(=O)N[C@@H](Cc1ccc(-c2ccccc2)cc1)C(=O)NCc1ccccc1 (H-Arg-[Phe(4-guanidino)]-[Bip]-NHBn)
Staphylococcus aureus [1]
  MIC: 2.5 µg/mL (≈ 3.62 µM)
Staphylococcus aureus [2]
  MIC: 5 µg/mL (≈ 7.24 µM)
[3]
  half-life at 1 mg/ml: 3.5 h

## N=C(N)NCCC[C@H](N)C(=O)N[C@@H](Cc1ccc(NC(=N)N)cc1)C(=O)N[C@@H](Cc1c[nH]c2ccccc12)C(=O)NCc1ccccc1 (H-Arg-[Phe(4-guanidino)]-Trp-NHBn)
Staphylococcus aureus [1]
  MIC: 15 µg/mL (≈ 22.9 µM)
Staphylococcus aureus [2]
  MIC: 50 µg/mL (≈ 76.5 µM)
[3]
  half-life at 1 mg/ml: 8 h

## N=C(N)NC[C@H](NC(=O)[C@H](Cc1ccc(-c2ccccc2)cc1)NC(=O)[C@@H](N)CNC(=N)N)C(=O)NCc1ccccc1 (H-[Agp]-[Bip]-[Agp]-NHBn)
Staphylococcus aureus [1]
  MIC: 10 µg/mL (≈ 17 µM)
Staphylococcus aureus [2]
  MIC: 15 µg/mL (≈ 25.6 µM)
[3]
  t1/2: Stable
